Results: ChEMBL document CHEMBL4699477, “Tricyclic sulfones as potent, selective and efficacious RORγt inverse agonists - Exploring C6 and C8 SAR using late-stage functionalization” (Bioorg Med Chem Lett, 2020)
Activity calls are given as the source filed them. The rule behind the calls is not given here.

Tests used:
[1] = Metabolic stability in rat liver microsomes assessed as half life; format: ADME, Microsome
[2] = Metabolic stability in human liver microsomes assessed as half life; format: ADME, Microsome
[3] = Metabolic stability in mouse liver microsomes assessed as half life; format: ADME, Microsome
[4] = Drug concentration in Balb/c mouse at 10 mg/kg, po measured after 24 hrs; format: ADME, organism-based; conditions: in vivo, read-out: Drug uptake
[5] = Cmax in Balb/c mouse at 10 mg/kg, po; format: ADME, organism-based; set-up: route oral, dose 10 mg/kg; conditions: in vivo
[6] = biological target: T1, Nuclear receptor ROR-gamma (Homo sapiens, UniProt P51449); assay: Inverse agonist activity at RORgammat in CD3 and CD28-stimulated human whole blood assessed as reduction in IL17A production incubated for 1 hr before CD3 and CD28 stimulation for 20 hrs by AlphaLISA method; format: tissue-based
T1 sequence (P51449 whole entry): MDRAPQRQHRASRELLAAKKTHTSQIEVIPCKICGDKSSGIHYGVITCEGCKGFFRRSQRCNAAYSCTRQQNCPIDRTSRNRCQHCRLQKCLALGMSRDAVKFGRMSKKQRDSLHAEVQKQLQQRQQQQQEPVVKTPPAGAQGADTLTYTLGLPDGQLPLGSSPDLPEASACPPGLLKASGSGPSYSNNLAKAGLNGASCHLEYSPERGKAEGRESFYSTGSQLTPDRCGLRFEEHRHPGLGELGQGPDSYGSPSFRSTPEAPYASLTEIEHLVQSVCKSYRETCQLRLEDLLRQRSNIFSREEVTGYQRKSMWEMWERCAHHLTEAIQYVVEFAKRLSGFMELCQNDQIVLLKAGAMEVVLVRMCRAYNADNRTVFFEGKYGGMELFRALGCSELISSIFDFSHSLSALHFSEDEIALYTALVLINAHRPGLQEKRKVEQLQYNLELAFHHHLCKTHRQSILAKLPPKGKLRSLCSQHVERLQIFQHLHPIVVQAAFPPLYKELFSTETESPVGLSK

[7] = biological target: T1, Nuclear receptor ROR-gamma; assay: Inverse agonist activity at Gal4-fused RORgammat (unknown origin)
Mus musculus = assay: Protection against recombinant human IL23-induced acanthosis C57BL/6 mouse model assessed as reduction in ear swelling at 50 mg/kg, po administered bid for 9 days; format: functional, organism-based; conditions: time 9.0 day
[8] = GSH reactivity in human liver cytosol assessed as GSH adduct formation; format: ADME, subcellular, Cytoplasm

Compound	half-life [1]	half-life [2]	half-life [3]	further results
N#Cc1cc2c(cc1C(F)(C(F)(F)F)C(F)(F)F)CC[C@H]1N(C(=O)[C@H]3CC[C@H](C(=O)O)CC3)CC[C@@]21S(=O)(=O)c1ccc(F)cc1	1.45 h	> 2 h	> 2 h	concentration at 24 h [4]: 1600 nM; Cmax [5]: 8600 nM; EC50 [6]: 13 nM; EC50 [7]: 17 nM
O=C(O)[C@H]1CC[C@H](C(=O)N2CC[C@](c3ccc(C(F)(C(F)(F)F)C(F)(F)F)cc3)(S(=O)(=O)c3ccc(F)cc3)C2)CC1	–	–	–	inhibition (Mus musculus): Active
O=C(O)[C@H]1CC[C@H](C(=O)N2CC[C@@]3(S(=O)(=O)c4ccc(F)cc4)c4ccc(C(F)(C(F)(F)F)C(F)(F)F)cc4CC[C@@H]23)CC1	–	–	–	concentration at 24 h [4]: 400 nM; Cmax [5]: 1400 nM
O=C(O)[C@H]1CC[C@H](C(=O)N2CC[C@@]3(S(=O)(=O)c4ccc(F)cc4)c4cc(Cl)c(C(F)(C(F)(F)F)C(F)(F)F)cc4CC[C@@H]23)CC1	1.38 h	> 2 h	> 2 h	–
C[C@H]1C[C@H](C(=O)O)CC[C@H]1C(=O)N1CC[C@@]2(S(=O)(=O)c3ccccc3)c3ccc(C(F)(C(F)(F)F)C(F)(F)F)cc3CC[C@@H]12	–	–	–	EC50 [6]: 52 nM

Second part, led by results:

half-life [1]	half-life [2]	half-life [3]	Compound	further results
> 2 h	> 2 h	> 2 h	Cc1cc2c(cc1C(F)(C(F)(F)F)C(F)(F)F)CC[C@H]1N(C(=O)[C@H]3CC[C@H](C(=O)O)CC3)CC[C@@]21S(=O)(=O)c1ccc(F)cc1	–
> 2 h	> 2 h	> 2 h	C[C@H]1C[C@H](C(=O)O)CC[C@H]1C(=O)N1CC[C@@]2(S(=O)(=O)c3ccc(F)cc3)c3ccc(C(F)(C(F)(F)F)C(F)(F)F)cc3CC[C@@H]12 [BMS-986251]	Activity [8]: 6%
